Results as given in ChEMBL document CHEMBL4418497, “Compositions and methods relating to inhibiting serine hyrdoxymethyltransferase 2 activity” (2016).

Legend:
[1] = target: T1, Serine hydroxymethyltransferase, mitochondrial (Homo sapiens) (UniProt P34897); assay: Inhibition of His-tagged human recombinant SHMT2 expressed in Escherichia coli BLR(DE3) assessed as reduction in NADPH level using L-serine, THF and NADP+ at 6.5 or 26.5 uM incubated for 5 mins by SHMT2-MTHFD coupled reaction based fluorescence assay relative to control
T1 sequence (whole entry): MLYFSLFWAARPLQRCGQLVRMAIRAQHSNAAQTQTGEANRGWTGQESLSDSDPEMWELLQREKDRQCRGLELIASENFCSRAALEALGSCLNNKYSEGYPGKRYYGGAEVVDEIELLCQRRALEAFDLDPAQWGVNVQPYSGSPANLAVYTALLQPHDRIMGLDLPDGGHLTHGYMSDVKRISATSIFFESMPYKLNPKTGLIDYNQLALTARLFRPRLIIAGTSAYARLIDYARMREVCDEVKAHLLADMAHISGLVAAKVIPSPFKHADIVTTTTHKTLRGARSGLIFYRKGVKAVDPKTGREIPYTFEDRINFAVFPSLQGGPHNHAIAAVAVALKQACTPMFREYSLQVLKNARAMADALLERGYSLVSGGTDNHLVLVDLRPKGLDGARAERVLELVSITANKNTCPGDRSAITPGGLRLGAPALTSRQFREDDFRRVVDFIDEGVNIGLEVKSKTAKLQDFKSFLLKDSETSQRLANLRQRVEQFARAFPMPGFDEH

[2] = target: T2, Serine hydroxymethyltransferase, mitochondrial (Homo sapiens, UniProt P34897); assay: Inhibition of His-tagged human recombinant SHMT2 expressed in Escherichia coli BLR(DE3) assessed as reduction in NADPH level using L-serine, THF and NADP+ incubated for 5 mins by SHMT2-MTHFD coupled reaction based fluorescence assay; conditions: read-out: pIC50 (converted)
T2 sequence (P34897 whole entry): T1 sequence (whole entry)

SMILES	inhibition [1] [%]	IC50 [2] [nM]
COc1cc(NC(C)CCCN)c2ncccc2c1 (stereo unspecified) [PRIMAQUINE]	91.9	437
CNCC[C@H](Oc1cccc2ccccc12)c1cccs1 [DULOXETINE]	83.8	6920
CN(C)c1cc2c(Nc3ccc4c(cnn4Cc4ccccc4)c3)ncnc2cn1 [GW282974X]	77.5	2450
COc1ccc(Cc2nccc3cc(OC)c(OC)cc23)cc1OC [PAPAVERINE]	59.2	2690
Cc1cc(/C=C/c2ccc3cc(N(C)C)ccc3[n+]2C)c(C)n1-c1ccccc1	88.2	2570
Cc1onc(-c2c(Cl)cccc2Cl)c1NC(=O)Nc1ccc(N(C)C)c(Cl)c1C#N	97.1	–
Brc1c(NC2=NCCN2)ccc2nccnc12	79	–
CNC(=O)Oc1ccc2c(c1)[C@]1(C)CCN(C)[C@@H]1N2	55.9	–
O=C(Nc1cccc2c(=O)cc(-c3nnn[nH]3)oc12)c1ccc(OCCCCc2ccccc2)cc1	65.5	–
CC(=O)C1CC[C@H]2C3CC[C@H]4C[C@H](O)CC[C@]4(C)C3CC[C@]12C (stereo partly specified)	65.9	–
COC(=O)/C=C(/Nc1cc(OC)ccc1OC)C(=O)OC	56.3	–
CN1CC[C@@]2(C)c3cc(OC(=O)Nc4ccccc4)ccc3N(C)[C@@H]12	56.6	–
COc1ccc2c(c1O)-c1c(OC)c(OC)cc3c1C(C2)N(C)CC3 (stereo unspecified)	69.3	–
CCOC(=O)Nc1ccc(NCc2ccc(F)cc2)nc1N [FLUPIRTINE]	86.1	933
COC(=O)CC1C(C)(C)C(OC(C)=O)[C@@H]2[C@@H](OC(C)=O)[C@]34O[C@@H]2[C@]1(C)C3CC[C@]1(C)C4=CC(=O)O[C@H]1c1ccoc1 (stereo partly specified)	52.4	–
